Patent US10703751B2, “Amino-imidazopyridine derivatives as Janus kinase inhibitors and pharmaceutical use thereof” (LEO Pharma A/S, priority 2017, dated 2020)
Like-named read-outs stand apart in the source and are kept apart here.

What was measured:
JAK2 = JAK2 (Homo sapiens (Human), UniProt O60674); assay: JAK2 kinase assay (HTRF); format: biochemical; details: ATP at Km (4 μM)
Description: (§1) Human baculovirus-expressed Janus kinase (JAK) 1, 2, 3 and tyrosin kinase (TYK) 2 were purchased from Carna Biosciences, Inc (#08-144, -045, -046, -147 resp.). All four purified enzymes contain only the catalytic domain. JAK1 (aa 850-1154) and TYK2 (aa 871-1187) are expressed with an N-terminally fused GST-tag, and JAK2 and JAK3 with an N-terminally fused His-tag. Inhibition of phosphorylation of a synthetic peptide was measured in an HTRF-based assay (CisBio #62TKOPEC). First, 75 nL of test compound solution (100% DMSO) was added to a white shallow 384-well plate (NUNC #264706) using a Labcyte ECHO 550 liquid handler. Thereafter, 1 μL of compound dilution buffer (50 mM HEPES, 0.05% bovine serum albumin) and 2 μL of TK solution (TK substrate-biotin in kinase buffer [1× enzymatic buffer from HTRFKinEASE TK kit, 1 mM DTT]) was added. Then, 5 μL kinase-ATP mix (prepared in kinase buffer) was added to the wells and the plates were incubated at RT for 20 (JAK2, 3 and TYK2) to 40 (JAK1) min. For all four kinases a concentration of ATP that corresponded to the Km for ATP was used. The final concentrations of buffers, substrate, kinase and ATP were: JAK1: 50 mM Hepes buffer pH 7.0, 0.01% BSA, 10 mM MgCl2, 1 mM DTT, 7 μM ATP, 50 nM SEB, 1 μM TK Substrate-Biotin and 5 ng/well JAK1; JAK2: 50 mM Hepes buffer pH 7.0, 0.01% BSA, 5 mM MgCl2, 1 mM DTT, 4 μM ATP, 1 μM TK Substrate-Biotin and 0.1 ng/well JAK2; JAK3: 50 mM Hepes buffer pH 7.0, 0.01% BSA, 5 mM MgCl2, 1 mM DTT, 2 μM ATP, 1 μM TK Substrate-Biotin and 0.3 ng/well JAK3; TYK2: 50 mM Hepes buffer pH 7.0, 0.01% BSA, 5 mM MgCl2, 1 mM DTT, 13 μM ATP, 50 nM SEB, 1 μM TK Substrate-Biotin and 0.8 ng/well TYK2. Thereafter, the kinase reaction was stopped by adding 4 μL detection mix (final concentrations: 50 mM Hepes buffer pH 7.0, 0.01% BSA, 0.8 M KF, 20 mM EDTA, 42 nM Streptavidin-XL665 and 1:400 STK Ab Cryptate) and the plates were incubated overnight in the dark. A PerkinElmer Envision reader was used to quantify the HTRF signal using the following filters; 320 nm excitation filter, 665 nm emission filter and a 615 nm 2nd emission filter. A ratio ((665/615)×10^4) was calculated for each well.

TYK2 = TYK2 (Homo sapiens (Human), UniProt P29597); assay: TYK2 kinase assay (HTRF); format: biochemical
TYK2, sequence (P29597 871-1187): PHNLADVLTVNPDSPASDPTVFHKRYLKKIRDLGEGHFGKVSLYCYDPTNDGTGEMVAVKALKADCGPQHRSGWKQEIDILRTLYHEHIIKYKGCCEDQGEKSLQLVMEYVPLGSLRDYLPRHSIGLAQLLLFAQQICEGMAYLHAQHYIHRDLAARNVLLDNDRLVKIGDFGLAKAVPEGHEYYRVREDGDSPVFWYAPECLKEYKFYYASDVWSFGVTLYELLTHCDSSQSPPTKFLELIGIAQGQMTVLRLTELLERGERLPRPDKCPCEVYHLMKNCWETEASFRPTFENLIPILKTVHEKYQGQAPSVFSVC
Description: as §1

JAK3 = JAK3 (Homo sapiens (Human), UniProt P52333); assay: JAK3 kinase assay (HTRF); format: biochemical
JAK3, sequence (P52333 822-1111): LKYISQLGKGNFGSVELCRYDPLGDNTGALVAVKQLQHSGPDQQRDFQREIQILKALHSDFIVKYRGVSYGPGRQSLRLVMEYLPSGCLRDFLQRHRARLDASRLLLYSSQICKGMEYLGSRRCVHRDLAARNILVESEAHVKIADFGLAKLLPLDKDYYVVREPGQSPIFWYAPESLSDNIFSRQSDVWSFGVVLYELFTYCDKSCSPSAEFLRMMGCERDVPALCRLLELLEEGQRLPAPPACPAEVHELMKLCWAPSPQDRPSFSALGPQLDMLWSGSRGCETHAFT
Description: as §1

STAT6 bla-RA1 cells = assay: STAT6 assay (IL-4 stimulated reporter cells); format: cell-based; details: for EC50: interleukin 4 10 ng/mL; for STAT5/STAT6 EC50 ratio (selectivity for STAT6 over STAT5): selectivity for STAT6 over STAT5, from EC50
Description: Twenty-five μL of a STAT6 bla-RA1 (Invitrogen # K1243) cell suspension was seeded with a density of 30-40,000 cells/well in 384-well Black View-plates (PerkinElmer #6007460) with clear bottom in assay medium (Opti-MEM (Invitrogen #11058-021)+0.5% heat inactivated fetal bovine Serum (Invitrogen #10082-147)+1% non-essential amino acids (Invitrogen #11140-050)+1% sodium pyruvate (Invitrogen #11360-070)+1% penicillin/streptomycin (Invitrogen #15140-122)); containing 550 ng/mL of CD40 ligand (Invitrogen # PHP0025). The cell plates were incubated overnight in a humidified 37° C. air/CO2 (95%/5%) incubator. The following day, 125 nL of solutions of test compounds and reference compounds were transferred to cell plates using the Labcyte Echo 550 liquid handler. The plates were then incubated for 1 h in a humidified 37° C. air/CO2 (95%/5%) incubator. Hereafter recombinant human interleukin 4 (Invitrogen # PHC0045) were added to the plates also using the Labcyte Echo 550 to a final concentration of 10 ng/mL. The cells were then incubated for 4½-5 h in a humidified 37° C. air/CO2 (95%/5%) incubator. 8 μL of LiveBLAzer substrate mixture (Invitrogen # K1095) were then added to the assay plates, which were incubated overnight at RT. Fluorescence was then measured: Excitation: 405 nm; Emission: 460 nm (green channel), Emission: 535 nm (blue channel). Background was subtracted in both emission channels and the ratio 460/535 nm was calculated for each well.

JAK1 = JAK1 (Homo sapiens (Human), UniProt P23458); assay: JAK1 kinase assay (HTRF); format: biochemical; details: for JAK2/JAK1 ratio / JAK3/JAK1 ratio: ratio of the respective EC50
JAK1, sequence (P23458 850-1154): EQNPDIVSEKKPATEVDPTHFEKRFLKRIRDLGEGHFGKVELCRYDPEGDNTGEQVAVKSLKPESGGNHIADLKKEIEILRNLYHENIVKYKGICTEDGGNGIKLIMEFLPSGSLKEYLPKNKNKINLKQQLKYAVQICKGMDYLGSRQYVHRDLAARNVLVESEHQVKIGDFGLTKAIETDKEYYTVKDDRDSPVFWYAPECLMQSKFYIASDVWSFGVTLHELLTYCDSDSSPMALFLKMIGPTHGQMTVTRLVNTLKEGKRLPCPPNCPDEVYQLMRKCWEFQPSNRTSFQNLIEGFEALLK
Description: as §1

STAT5 irfl-bla TF1 cells = assay: STAT5 assay (EPO stimulated reporter cells); format: cell-based; details: Homo sapiens, TF-1; erythropoietin (EPO) 10 ng/mL
Description: Twenty-five μL of a STAT5 irfl-bla TF1 (Invitrogen # K1219) cell suspension was seeded with a density of about 10,000 cells/well in 384-well Black View-plates (PerkinElmer #6007460) with clear bottom in assay medium (Opti-MEM (Invitrogen #11058-021)+0.5% heat inactivated fetal bovine Serum (Invitrogen #10082-147)+1% non-essential amino acids (Invitrogen #11140-050)+1% sodium pyruvate (Invitrogen #11360-070)+1% penicillin/streptomycin (Invitrogen #15140-122)). The cell plates were incubated overnight in a humidified 37° C. air/CO2 (95%/5%) incubator. The following day, 125 nL of solutions of test compounds and reference compounds were transferred to cell plates using the Labcyte Echo 550 liquid handler. The plates were then incubated for 1 h in a humidified 37° C. air/CO2 (95%/5%) incubator. Hereafter recombinant human erythropoietin (EPO) (Invitrogen # PHC9634) was added to the plates also using the Labcyte Echo 550 to a final concentration of 10 ng/mL. The cells were then incubated for 4½-5 h in a humidified 37° C. air/CO2 (95%/5%) incubator. 8 μL of LiveBLAzer substrate mixture (Invitrogen # K1095) were then added to the assay plates, which were then incubated overnight at RT. Fluorescence was then measured: Excitation: 405 nm; Emission: 460 nm (green channel), Emission: 535 nm (blue channel). Background was subtracted in both emission channels and the ratio 460/535 nm was calculated for each well.

JAK2, sequence (O60674 849-1124): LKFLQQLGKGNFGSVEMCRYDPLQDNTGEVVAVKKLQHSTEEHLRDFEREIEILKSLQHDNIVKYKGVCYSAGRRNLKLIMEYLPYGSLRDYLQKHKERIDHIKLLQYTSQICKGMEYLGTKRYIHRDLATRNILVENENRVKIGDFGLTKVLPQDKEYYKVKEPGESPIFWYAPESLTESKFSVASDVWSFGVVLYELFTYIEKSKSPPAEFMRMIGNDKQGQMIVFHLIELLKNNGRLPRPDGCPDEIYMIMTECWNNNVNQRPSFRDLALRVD

Work on `CNc1cc2c(cn1)nc([C@@H](C)O)n2[C@H]1CC[C@@H](CC#N)CC1` [Example 7, cis-2-[4-[2-[(1R)-1-Hydroxyethyl]-6-(methylamino)imidazo[4,5-c]pyridin-1-yl]cyclohexyl]acetonitrile] yielded an EC50 (JAK2) of 981 nM, an EC50 (TYK2; ATP at Km (13 μM)) of 443 nM and an EC50 (JAK3; ATP at Km (2 μM)) of 1010 nM. For the same compound, the EC50 (STAT6 bla-RA1 cells) was 3460 nM, the “STAT5/STAT6 EC50 ratio (selectivity for STAT6 over STAT5)” value (STAT6 bla-RA1 cells) was >14 and the EC50 (JAK1; ATP at Km (7 μM)) was 129 nM. The JAK2/JAK1 ratio (JAK1) was 7.6, the JAK3/JAK1 ratio (JAK1) was 7.8 and the EC50 (STAT5 irfl-bla TF1 cells) was > 49800 nM.

`[2H]C([2H])([2H])Nc1cc2c(cn1)nc([C@@H](C)O)n2[C@H]1CC[C@H](CC#N)CC1` [Example 4, trans-2-[4-[2-[(1R)-1-Hydroxyethyl]-6-(trideuteriomethylamino)imidazo[4,5-c]pyridin-1-yl]cyclohexyl]acetonitrile] gave an EC50 (JAK2) of 153 nM, an EC50 (TYK2) of 43 nM and an EC50 (JAK3) of 2310 nM. The EC50 (STAT6 bla-RA1 cells) was 141 nM, the “STAT5/STAT6 EC50 ratio (selectivity for STAT6 over STAT5)” value (STAT6 bla-RA1 cells) was 50 and the EC50 (JAK1) was 3.46 nM. It also gave a JAK2/JAK1 ratio (JAK1) of 44, a JAK3/JAK1 ratio (JAK1) of 668 and an EC50 (STAT5 irfl-bla TF1 cells) of 7080 nM.

In the case of `CNc1cc2c(cn1)nc(C(C)O)n2[C@H]1CC[C@H](CC#N)CC1` (stereo partly drawn) [Example 1, trans-2-[4-[2-[1-Hydroxyethyl]-6-(methylamino)imidazo[4,5-c]pyridin-1-yl]cyclohexyl]acetonitrile], the EC50 (JAK2) is reported as 530 nM, the EC50 (TYK2; ATP at Km (13 μM)) is reported as 111 nM and the EC50 (JAK3; ATP at Km (2 μM)) is reported as 5260 nM. The EC50 (STAT6 bla-RA1 cells) was 237 nM, the “STAT5/STAT6 EC50 ratio (selectivity for STAT6 over STAT5)” value (STAT6 bla-RA1 cells) was 62 and the EC50 (JAK1; ATP at Km (7 μM)) was 10.8 nM. It also gave a JAK2/JAK1 ratio (JAK1) of 49, a JAK3/JAK1 ratio (JAK1) of 487 and an EC50 (STAT5 irfl-bla TF1 cells) of 14600 nM.

`CNc1cc2c(cn1)nc([C@H](C)O)n2[C@H]1CC[C@H](CC#N)CC1` [Example 2, trans-2-[4-[2-[(1S)-1-Hydroxyethyl]-6-(methylamino)imidazo[4,5-c]pyridin-1-yl]cyclo-hexyl]acetonitrile] gave an EC50 (JAK2) of 1130 nM, an EC50 (TYK2) of 466 nM and an EC50 (JAK3) of 9820 nM. The EC50 (STAT6 bla-RA1 cells) was 1160 nM, the “STAT5/STAT6 EC50 ratio (selectivity for STAT6 over STAT5)” value (STAT6 bla-RA1 cells) was >37 and the EC50 (JAK1) was 44.4 nM. The JAK2/JAK1 ratio (JAK1) was 25, the JAK3/JAK1 ratio (JAK1) was 221 and the EC50 (STAT5 irfl-bla TF1 cells) was > 42600 nM.

In the case of `CNc1cc2c(cn1)nc(C(C)O)n2[C@H]1CC[C@@H](CC#N)CC1` (stereo partly drawn) [Example 6, cis-2-[4-[2-[1-Hydroxyethyl]-6-(methylamino)imidazo[4,5-c]pyridin-1-yl]cyclohexyl]acetonitrile], the EC50 (JAK2) is reported as 2640 nM, the EC50 (TYK2; ATP at Km (13 μM)) is reported as 1110 nM and the EC50 (JAK3; ATP at Km (2 μM)) is reported as 2870 nM. The EC50 (STAT6 bla-RA1 cells) was 8570 nM, the “STAT5/STAT6 EC50 ratio (selectivity for STAT6 over STAT5)” value (STAT6 bla-RA1 cells) was >5.8 and the EC50 (JAK1; ATP at Km (7 μM)) was 508 nM. The JAK2/JAK1 ratio (JAK1) was 5.2, the JAK3/JAK1 ratio (JAK1) was 5.6 and the EC50 (STAT5 irfl-bla TF1 cells) was > 49800 nM.

`[2H]C([2H])([2H])C([2H])(O)c1nc2cnc(NC)cc2n1[C@H]1CC[C@H](CC#N)CC1` (stereo partly drawn) [Example 5, trans-2-[4-[2-[1,2,2,2-Tetradeuterio-1-hydroxyethyl]-6-(methylamino)imidazo[4,5-c]pyridin-1-yl]cyclohexyl]acetonitrile] gave an EC50 (JAK2) of 301 nM, an EC50 (TYK2) of 102 nM and an EC50 (JAK3) of 3200 nM. For the same compound, the EC50 (STAT6 bla-RA1 cells) was 270 nM, the “STAT5/STAT6 EC50 ratio (selectivity for STAT6 over STAT5)” value (STAT6 bla-RA1 cells) was 34 and the EC50 (JAK1) was 8.41 nM. For the same compound, the JAK2/JAK1 ratio (JAK1) was 36, the JAK3/JAK1 ratio (JAK1) was 380 and the EC50 (STAT5 irfl-bla TF1 cells) was 9240 nM.
